Test results taken from publication PMC10831071, “Reaction hijacking inhibition of Plasmodium falciparum asparagine tRNA synthetase” (Nature Communications, 2024).
Several values for one entry are separate records, joined by “and”; a condition that tells them apart may be missing. Identical values can stand only once.

Assays:
[1] = tested on: P. falciparum Dd2-B2 clone; assay: microbe, parasite or virus in culture; type: cell-based, Plasmodium falciparum; details: Plasmodium falciparum, DD2
Excerpt: Wells were monitored daily by smear during the first 7 days to ensure parasite clearance, during which media was changed daily. […] Whole-genome sequencing analysis employed MiSeq data from libraries of 2 × 300 bp paired end reads.

[2] = Stability in rat hepatocytes; type: in vitro ADME
[3] = tested on: PfAlaRS cKD P. falciparum line; assay: microbe, parasite or virus in culture; type: cell-based, Plasmodium falciparum; details: for Growth: PfAlaRS K/D; for IC50: PfAlaRS line, individual repeats
Excerpt: (§1) Conditional knockdown (cKD) P. falciparum lines were generated for the cytosolic AsnRS (PF3D7_0211800), cytosolic AlaRS (PF3D7_1367700), cytosolic GlyRS (GlyRS; PF3D7_1420400), PfNT4 (PF3D7_0103200), P. falciparum glutamate dehydrogenase 3 (GDH3; PF3D7_0802000), and P. falciparum carbonic anhydrase (CA, PF3D7_1140000) by fusing the coding sequences and non-coding RNA aptamer sequences in the 3’-UTR, permitting translation regulation using the TetR-DOZI system[59],[60]. Gene editing was achieved by CRISPR/SpCas9 using the linear pSN054 vector that contains cloning sites for the left homology region (LHR) and the right homology region (RHR) as well a target-specific guide RNA under control of the T7 promoter. Cloning into the pSN054 donor vector was carried out following described procedures[59],[60]. The vector includes V5-2xHA epitope tags, a 10x tandem array of TetR aptamers upstream of an Hsp86 3’UTR, and a multicistronic cassette for expression of TetR-DOZI (translation regulation), blasticidin S-deaminase (selection marker) and a Renilla luciferase (RLuc) reporter. All primer and synthetic fragment sequences that were generated using the BioXP™ system and IDT gBlocks™ are included in Supplementary Table 9. The final constructs were sequence-verified and further confirmed by restriction digests.
(§2) Transfection into Cas9- and T7 RNA polymerase-expressing NF54 parasites was carried out by pre-loading red blood cells (RBCs) with the donor vector[61]. […] Cultures were monitored by Giemsa smears and RLuc measurements.
(§3) DMSO- and dihydroartemisinin-treatment (0.5 µM) served as reference controls.

[4] = tested on: PfNT4 cKD P. falciparum line; assay: microbe, parasite or virus in culture; type: cell-based, Plasmodium falciparum; details: for growth after 72 h exposure, normalised to no drug: PfNT4 K/D, replicates; for IC50: PfNT4 line, individual repeats
Excerpt: as §1, §2, §3

[5] = tested on: PfAsnRS cKD P. falciparum line; assay: microbe, parasite or virus in culture; type: cell-based, Plasmodium falciparum; details: PfAsnRS K/D, replicates
Excerpt: as §1, §2, §3

[6] = Plasmodium falciparum, 1 nM, […] aTc or no aTc
[7] = Plasmodium falciparum, 500 nM aTc

With Nc1ncnc2cc(-c3cccc(S(N)(=O)=O)c3)sc12 [OSM-S-106] the IC50 [1] was 88.9 nM, the IC90 [1] was 169 nM and the “stability during incubation with rat hepatocytes” value [2] was “stable”. For the same compound, the Growth ([3]; 3.125 nM OSM-S-106, 500 nM aTc) was 106.745 and 98.2451 and 120.926, the Growth ([3]; 6.25 nM OSM-S-106, 500 nM aTc) was 90.3733 and 84.6837 and 109.578 and the Growth ([3]; 12.5 nM OSM-S-106, 500 nM aTc) was 88.5694 and 88.7266 and 97.0041. The Growth ([3]; 25 nM OSM-S-106, 500 nM aTc) was 83.1875 and 95.5017 and 98.3659, the Growth ([3]; 50 nM OSM-S-106, 500 nM aTc) was 55.6885 and 91.3478 and 80.2088 and the Growth ([3]; 200 nM OSM-S-106, 500 nM aTc) was 76.3648. The Growth ([3]; 200 nM OSM-S-106, […] aTc) was 67.5946, the IC50 ([3]; 1 nM, […] aTc or no aTc) was 46.2 nM and the IC50 ([3]; 500 nM aTc) was 99.7 nM. The IC50 [3, 6] was 56.8 nM, the IC50 [3, 7] was 78.4 nM and the “growth after 72 h exposure, normalised to no drug” value (shortened to “growth … normalised to no drug”) ([4]; 500 nM aTc, 0.488281 nM) was 115.319 and 105.291 and 111.528. The “growth … normalised to no drug” value ([4]; 500 nM aTc, 0.976562 nM) was 113.41 and 102.567 and 108.441, the “growth … normalised to no drug” value ([4]; 500 nM aTc, 1.95312 nM) was 108.529 and 100.357 and 100.986 and the “growth … normalised to no drug” value ([4]; 500 nM aTc, 3.90625 nM) was 110.366 and 98.6162 and 100.564. For the same compound, the “growth … normalised to no drug” value ([4]; 500 nM aTc, 7.8125 nM) was 101.389 and 100.305 and 97.246, the “growth … normalised to no drug” value ([4]; 500 nM aTc, 31.25 nM) was 11.2119 and 13.2391 and 14.7628 and the “growth … normalised to no drug” value ([4]; 500 nM aTc, 62.5 nM) was 1.785 and 2.763 and 1.994. The “growth … normalised to no drug” value ([4]; 500 nM aTc, 125 nM) was 0.2373 and 0.4204 and 0.2459, the “growth … normalised to no drug” value ([4]; 500 nM aTc, 250 nM) was 0.2337 and 0.2689 and 0.2037 and the “growth … normalised to no drug” value ([4]; no aTc, 0.488281 nM) was 115.9 and 108.506 and 115.265. For the same compound, the “growth … normalised to no drug” value ([4]; no aTc, 0.976562 nM) was 107.637 and 104.459 and 111.884, the “growth … normalised to no drug” value ([4]; no aTc, 1.95312 nM) was 103.621 and 102.992 and 106.407 and the “growth … normalised to no drug” value ([4]; no aTc, 3.90625 nM) was 93.8123 and 99.6909 and 104.029. For the same compound, the “growth … normalised to no drug” value ([4]; no aTc, 7.8125 nM) was 30.4373 and 37.6726 and 51.4607, the “growth … normalised to no drug” value ([4]; no aTc, 31.25 nM) was 0.5987 and 0.9711 and 0.5614 and the “growth … normalised to no drug” value ([4]; no aTc, 62.5 nM) was 0.1353 and 0.2821 and 0.05072. The “growth … normalised to no drug” value ([4]; no aTc, 125 nM) was 0.1322 and 0.3476 and 0.0472, the “growth … normalised to no drug” value ([4]; no aTc, 250 nM) was 0.1415 and 0.3214 and 0.1916 and the IC50 ([4]; 500 nM aTc) was 20.5 nM and 21.4 nM. For the same compound, the IC50 [4, 6] was 6.09 nM, the IC50 [4, 7] was 19.9 nM and the “growth … normalised to no drug” value ([5]; 1 nM aTc, 3.125 nM) was 100 (2×) and 98.2196. For the same compound, the “growth … normalised to no drug” value ([5]; 1 nM aTc, 6.25 nM) was 101.298 and 95.7154 and 83.7406, the “growth … normalised to no drug” value ([5]; 1 nM aTc, 12.5 nM) was 113.486 and 107.859 and 50.8034 and the “growth … normalised to no drug” value ([5]; 1 nM aTc, 25 nM) was 72.3501 and 87.3666 and 36.7561. The “growth … normalised to no drug” value ([5]; 1 nM aTc, 50 nM) was 8.286 and 14.406 and 55.7128, the “growth … normalised to no drug” value ([5]; 1 nM aTc, 100 nM) was 12.9721 and 14.646 and 33.4758 and the “growth … normalised to no drug” value ([5]; 1 nM aTc, 200 nM) was 2.187 and 4.184 and 3.619. The “growth … normalised to no drug” value ([5]; 1 nM aTc, 400 nM) was 0.0118 and 0.3256 and 1.407, the “growth … normalised to no drug” value ([5]; 1 nM aTc, 800 nM) was 0 (2×) and 0.3116 and the “growth … normalised to no drug” value ([5]; 1 nM aTc, […]) was 95.5045. The “growth … normalised to no drug” value ([5]; 500 nM aTc, 3.125 nM) was 100 (2×) and 130.484, the “growth … normalised to no drug” value ([5]; 500 nM aTc, 6.25 nM) was 102.095 and 95.7689 and 98.7064 and the “growth … normalised to no drug” value ([5]; 500 nM aTc, 12.5 nM) was 106.159 and 101.462 and 104.967. The “growth … normalised to no drug” value ([5]; 500 nM aTc, 25 nM) was 108.223 and 97.6665 and 110.496.
